The source made the active and inactive calls. The calls are words filed in the database; no cut-off is given here.
Assays:
Pseudomonas aeruginosa [1] = assay: (§1) Antimicrobial activity in Pseudomonas aeruginosa NH57388A mucoid isolate harboring GFP-fused avian sarcoma virus lasB gene infected in ftr-tml-Unc-TgN(FABPCFTR) cystic fibrosis mouse lung assessed as debris-like granular material surrounding polymorphonuclear leukocytes at 500 mg/kg, po administered 24 hrs after infection daily once for 5 days measured after 7 days postinfection by histopathology; type: functional, organism-based; design: dose 500 mg/kg
[2] = Drug level in Cftr-tml-Unc-TgN(FABPCFTR) cystic fibrosis mouse serum at 500 mg/kg, po after 0.5 hrs; type: ADME, organism-based; design: dose 500 mg/kg, route oral; settings: read-out: Drug uptake
Pseudomonas aeruginosa [3] = assay: Antimicrobial activity against Pseudomonas aeruginosa NH57388A mucoid isolate expressing quorum sensing lasI assessed as reduction of viable count at 12 ug/mL in presence of 2.5% human normal serum; type: functional
Pseudomonas aeruginosa [4] = assay: Inhibition of alginate synthesis in Pseudomonas aeruginosa NH57388A mucoid isolate supernatant assessed as uronic acid fraction out of the dialysis bag of total amount of uronic acids after exhaustive dialysis at 12 ug/mL after 24 hrs by carbazole-borate assay; type: functional; design: scale not given: the % may be the effect or the level left
Pseudomonas aeruginosa [5] = assay: (§2) Antimicrobial activity in Pseudomonas aeruginosa NH57388A mucoid isolate harboring GFP-fused avian sarcoma virus lasB gene infected in ftr-tml-Unc-TgN(FABPCFTR) cystic fibrosis mouse assessed as frequency of lung abscesses at 500 mg/kg, po administered 24 hrs after infection daily once for 5 days measured after 7 days postinfection; type: functional
Pseudomonas aeruginosa [6] = assay: as §2, with “mouse lung” for “mouse”, “scattered residues” for “frequency”, “alginate without bacteria” for “lung abscesses”, “postinfection by histopathology” for “postinfection”; type: functional, organism-based; design: dose 500 mg/kg
Pseudomonas aeruginosa [7] = assay: Antimicrobial activity against Pseudomonas aeruginosa NH57388A mucoid isolate expressing quorum sensing lasI assessed as reduction of viable count at 12 ug/mL in absence of 2.5% human normal serum; type: functional
Pseudomonas aeruginosa [8] = assay: Inhibition of quorum sensing-regulated chitinase production in Pseudomonas aeruginosa NH57388A mucoid isolate harboring GFP-fused […] lasB gene assessed as enzyme activity per cell at 8 ug/mL after 24 hrs relative to control; type: functional
Pseudomonas aeruginosa [9] = assay: Increase in sensitivity of hydrogen peroxide to quorum sensing lasI-deficient isogenic Pseudomonas aeruginosa NH57388A mucoid isolate mutant assessed as increase in zone of inhibition at 12 ug/mL after 48 hrs relative to untreated bacterial control; type: functional; design: scale not given: the % may be the effect or the level left
[10] = Drug level in Cftr-tml-Unc-TgN(FABPCFTR) cystic fibrosis mouse serum at 500 mg/kg, po after 4 hrs; type: ADME, organism-based; design: dose 500 mg/kg, route oral; settings: read-out: Drug uptake
Pseudomonas aeruginosa [11] = assay: Inhibition of quorum sensing-regulated elastase production in Pseudomonas aeruginosa NH57388A mucoid isolate harboring GFP-fused […] lasB gene assessed as enzyme activity per cell at 4 ug/mL after 24 hrs relative to control; type: functional
Pseudomonas aeruginosa [12] = assay: Antimicrobial activity against quorum sensing lasI-deficient isogenic Pseudomonas aeruginosa NH57388D mucoid isolate assessed as reduction of viable count at 12 ug/mL in absence of 2.5% human normal serum; type: functional
Pseudomonas aeruginosa [13] = assay: Antimicrobial activity against Pseudomonas aeruginosa NH57388C nonmucoid isolate expressing quorum sensing lasI assessed as reduction of viable count at 12 ug/mL in presence of 2.5% human normal serum; type: functional
Pseudomonas aeruginosa [14] = assay: Antimicrobial activity against quorum sensing lasI-deficient isogenic Pseudomonas aeruginosa NH57388D mucoid isolate assessed as reduction of viable count at 12 ug/mL in presence of 2.5% human normal serum; type: functional
Mus musculus = species on record: Mus musculus; assay: Elimination half life in healthy mouse; type: ADME, organism-based; settings: in vivo
Pseudomonas aeruginosa [15] = assay: Antimicrobial activity against Pseudomonas aeruginosa NH57388A mucoid isolate harboring GFP-fused […] lasB gene infected in ftr-tml-Unc-TgN(FABPCFTR) cystic fibrosis mouse lungs assessed as reduction in GFP signal at 250 mg/kg, iv administered 24 hrs after infection measured after 24 hrs; type: functional, organism-based; design: dose 250 mg/kg
Pseudomonas aeruginosa [16] = assay: Inhibition of quorum sensing in Pseudomonas aeruginosa NH57388A mucoid isolate harboring GFP-fused […] lasB gene assessed as suppression of GFP expression after 14 hrs by molecular technology; type: functional, organism-based
Pseudomonas aeruginosa [17] = assay: Antimicrobial activity against Pseudomonas aeruginosa NH57388A mucoid isolate assessed as reduction of viable count in exponential phase at 64 ug/mL after 8 hrs; type: functional
Pseudomonas aeruginosa [18] = assay: Inhibition of quorum sensing-regulated alginate production in Pseudomonas aeruginosa NH57388A mucoid isolate harboring GFP-fused […] lasB gene assessed as enzyme activity per cell at 2 ug/mL after 24 hrs relative to control; type: functional
Pseudomonas aeruginosa [19] = assay: Inhibition of quorum sensing-regulated alginate production in Pseudomonas aeruginosa NH57388A mucoid isolate harboring GFP-fused […] lasB gene assessed as enzyme activity per cell at 8 ug/mL after 24 hrs relative to control; type: functional
Pseudomonas aeruginosa [20] = assay: Inhibition of alginate synthesis in Pseudomonas aeruginosa NH57388A mucoid isolate supernatant assessed as uronic acid concentration in inside of dialysis bag after equilibrium dialysis at 12 ug/mL after 24 hrs by carbazole-borate assay; type: functional
[21] = Elimination half life in Cftr-tml-Unc-TgN(FABPCFTR) cystic fibrosis mouse model at 500 mg/kg, po; type: ADME, organism-based; design: dose 500 mg/kg, route oral; settings: in vivo, read-out: beta t1/2 (converted)
Pseudomonas aeruginosa [22] = assay: Antimicrobial activity against Pseudomonas aeruginosa NH57388A mucoid isolate after overnight incubation by E-test; type: functional
Pseudomonas aeruginosa [23] = assay: Antimicrobial activity against Pseudomonas aeruginosa NH57388A mucoid isolate assessed as reduction of viable count in stationary phase at 2 ug/mL after 8 hrs; type: functional
Pseudomonas aeruginosa [24] = assay: as §2, with “mouse lungs” for “mouse”, “median alginate content in lungs” for “frequency of lung abscesses”; type: functional
Pseudomonas aeruginosa [25] = assay: Antimicrobial activity against Pseudomonas aeruginosa NH57388A mucoid isolate assessed as reduction of viable count in stationary phase at 16 ug/mL after 8 hrs; type: functional
Pseudomonas aeruginosa [26] = assay: Inhibition of quorum sensing-regulated chitinase production in Pseudomonas aeruginosa NH57388A mucoid isolate harboring GFP-fused […] lasB gene assessed as enzyme activity per cell at 4 ug/mL after 24 hrs relative to control; type: functional
Pseudomonas aeruginosa [27] = assay: Inhibition of alginate synthesis in Pseudomonas aeruginosa NH57388A mucoid isolate supernatant assessed as uronic acid fraction out of the dialysis bag of total amount of uronic acids after equilibrium dialysis at 12 ug/mL after 24 hrs by carbazole-borate assay; type: functional; design: scale not given: the % may be the effect or the level left
Pseudomonas aeruginosa [28] = assay: Antimicrobial activity against quorum sensing lasI-deficient isogenic nonmucoid Pseudomonas aeruginosa NH57388E mutant assessed as reduction of viable count at 12 ug/mL in presence of 2.5% human normal serum; type: functional
Pseudomonas aeruginosa [29] = assay: Inhibition of quorum sensing-regulated pyocyanin production in Pseudomonas aeruginosa NH57388A mucoid isolate harboring GFP-fused […] lasB gene assessed as enzyme activity per cell at 4 ug/mL after 24 hrs relative to control; type: functional
Pseudomonas aeruginosa [30] = assay: Inhibition of quorum sensing-regulated pyocyanin production in Pseudomonas aeruginosa NH57388A mucoid isolate harboring GFP-fused […] lasB gene assessed as enzyme activity per cell at 8 ug/mL after 24 hrs relative to control; type: functional
Pseudomonas aeruginosa [31] = assay: Inhibition of alginate synthesis in Pseudomonas aeruginosa NH57388A mucoid isolate supernatant assessed as uronic acid concentration in outside of dialysis bag after equilibrium dialysis at 12 ug/mL after 24 hrs by carbazole-borate assay; type: functional
Pseudomonas aeruginosa [32] = assay: Antimicrobial activity against quorum sensing lasI-deficient isogenic Pseudomonas aeruginosa NH57388E nonmucoid isolate assessed as reduction of viable count at 12 ug/mL in absence of 2.5% human normal serum; type: functional
Pseudomonas aeruginosa [33] = assay: Increase in sensitivity of hydrogen peroxide to Pseudomonas aeruginosa NH57388A mucoid isolate expressing quorum sensing lasI assessed as increase in zone of inhibition at 12 ug/mL after 48 hrs relative to untreated bacterial control; type: functional; design: scale not given: the % may be the effect or the level left
[34] = Drug level in Cftr-tml-Unc-TgN(FABPCFTR) cystic fibrosis mouse serum at 500 mg/kg, po after 1 hr; type: ADME, organism-based; design: dose 500 mg/kg, route oral; settings: read-out: Drug uptake
Pseudomonas aeruginosa [35] = assay: Toxicity in Pseudomonas aeruginosa NH57388A mucoid isolate harboring GFP-fused […] lasB gene assessed as growth rate at 2 to 12 ug/mL after 14 hrs by molecular technology relative to control; type: organism-based
Pseudomonas aeruginosa [36] = assay: as §1, with “fibrous spongy-like” for “debris-like granular”; type: functional, organism-based; design: dose 500 mg/kg
Pseudomonas aeruginosa [37] = assay: Inhibition of quorum sensing-regulated elastase production in Pseudomonas aeruginosa NH57388A mucoid isolate harboring GFP-fused […] lasB gene assessed as enzyme activity per cell at 2 ug/mL after 24 hrs relative to control; type: functional
Pseudomonas aeruginosa [38] = assay: Inhibition of quorum sensing-regulated alginate production in Pseudomonas aeruginosa NH57388A mucoid isolate harboring GFP-fused […] lasB gene assessed as enzyme activity per cell at 4 ug/mL after 24 hrs relative to control; type: functional
Pseudomonas aeruginosa [39] = assay: Antimicrobial activity against Pseudomonas aeruginosa NH57388C nonmucoid isolate expressing quorum sensing lasI assessed as reduction of viable count at 12 ug/mL in absence of 2.5% human normal serum; type: functional
Pseudomonas aeruginosa [40] = assay: Inhibition of quorum sensing-regulated chitinase production in Pseudomonas aeruginosa NH57388A mucoid isolate harboring GFP-fused […] lasB gene assessed as enzyme activity per cell at 2 ug/mL after 24 hrs relative to control; type: functional
Pseudomonas aeruginosa [41] = assay: Inhibition of quorum sensing-regulated elastase production in Pseudomonas aeruginosa NH57388A mucoid isolate harboring GFP-fused […] lasB gene assessed as enzyme activity per cell at 8 ug/mL after 24 hrs relative to control; type: functional
[42] = Drug level in Cftr-tml-Unc-TgN(FABPCFTR) cystic fibrosis mouse serum at 500 mg/kg, po after 2 hrs; type: ADME, organism-based; design: dose 500 mg/kg, route oral; settings: read-out: Drug uptake
Pseudomonas aeruginosa [43] = assay: Inhibition of alginate synthesis in Pseudomonas aeruginosa NH57388A mucoid isolate supernatant assessed as uronic acid concentration in dialysis bag after exhaustive dialysis at 12 ug/mL after 24 hrs by carbazole-borate assay; type: functional
Pseudomonas aeruginosa [44] = assay: Antimicrobial activity against Pseudomonas aeruginosa NH57388A mucoid isolate assessed as reduction of viable count in exponential phase at 256 ug/mL after 8 hrs; type: functional
Pseudomonas aeruginosa [45] = assay: Inhibition of alginate synthesis in Pseudomonas aeruginosa NH57388A mucoid isolate supernatant assessed as uronic acid concentration in dialysis bag before exhaustive dialysis at 12 ug/mL after 24 hrs by carbazole-borate assay; type: functional
Pseudomonas aeruginosa [46] = assay: Inhibition of quorum sensing-regulated pyocyanin production in Pseudomonas aeruginosa NH57388A mucoid isolate harboring GFP-fused […] lasB gene assessed as enzyme activity per cell at 2 ug/mL after 24 hrs relative to control; type: functional
[47] = Elimination half life in human; type: ADME, organism-based; settings: in vivo, read-out: beta t1/2 (converted)
Pseudomonas aeruginosa [48] = assay: as §2, with “activity against” for “activity in”, “as mortality” for “as frequency of lung abscesses”, “hrs postinfection” for “hrs after infection”; type: functional

CC[C@H]1OC(=O)[C@H](C)[C@@H](O[C@H]2C[C@@](C)(OC)[C@@H](O)[C@H](C)O2)[C@H](C)[C@@H](O[C@@H]2O[C@H](C)C[C@H](N(C)C)[C@H]2O)[C@](C)(O)C[C@@H](C)CN(C)[C@H](C)[C@@H](O)[C@]1(C)O [AZITHROMYCIN]
Activity (Pseudomonas aeruginosa [1]): Active
concentration at 0.5 h [2]: 2900 ng/mL
CFU (Pseudomonas aeruginosa [3]): 2.5 ×10² /ml
Activity (Pseudomonas aeruginosa [4]): 67.4%
Activity (Pseudomonas aeruginosa [5]): 32%
Activity (Pseudomonas aeruginosa [6]): Active
CFU (Pseudomonas aeruginosa [7]): 31 ×10⁶ /ml
inhibition at 8 µg/mL (Pseudomonas aeruginosa [8]): 10%
Activity (Pseudomonas aeruginosa [9]): 43%
concentration at 4 h [10]: 1700 ng/mL
inhibition at 4 µg/mL (Pseudomonas aeruginosa [11]): 45%
CFU (Pseudomonas aeruginosa [12]): 55 ×10⁶ /ml
CFU (Pseudomonas aeruginosa [13]): 0 mL
CFU (Pseudomonas aeruginosa [14]): 8.6 ×10⁵ /ml
beta t1/2 (Mus musculus): 0.733 h
Activity (Pseudomonas aeruginosa [15]): Active
Activity (Pseudomonas aeruginosa [16]): Dose-dependent effect
Activity (Pseudomonas aeruginosa [17]): 87%
inhibition at 2 µg/mL (Pseudomonas aeruginosa [18]): 63%
inhibition at 8 µg/mL (Pseudomonas aeruginosa [19]): 52%
Activity (Pseudomonas aeruginosa [20]): 316 µg/mL
half-life [21]: 2.3 h
MIC (Pseudomonas aeruginosa [22]): > 256 µg/mL
Activity (Pseudomonas aeruginosa [23]): 88%
Activity (Pseudomonas aeruginosa [24]): 10 µg/mL
Activity (Pseudomonas aeruginosa [25]): 99%
inhibition at 4 µg/mL (Pseudomonas aeruginosa [26]): 15%
Activity (Pseudomonas aeruginosa [27]): 31.2%
CFU (Pseudomonas aeruginosa [28]): 2 ×10³ /ml
inhibition at 4 µg/mL (Pseudomonas aeruginosa [29]): 32%
inhibition at 8 µg/mL (Pseudomonas aeruginosa [30]): 16%
Activity (Pseudomonas aeruginosa [31]): 143 µg/mL
CFU (Pseudomonas aeruginosa [32]): 3.8 ×10⁷ /ml
Activity (Pseudomonas aeruginosa [33]): 31%
concentration at 1 h [34]: 2900 ng/mL
Activity (Pseudomonas aeruginosa [35]): Non-toxic
Activity (Pseudomonas aeruginosa [36]): Active
inhibition at 2 µg/mL (Pseudomonas aeruginosa [37]): 77%
inhibition at 4 µg/mL (Pseudomonas aeruginosa [38]): 56%
CFU (Pseudomonas aeruginosa [39]): 110 ×10⁵ /ml
inhibition at 2 µg/mL (Pseudomonas aeruginosa [40]): 66%
inhibition at 8 µg/mL (Pseudomonas aeruginosa [41]): 51%
concentration at 2 h [42]: 3100 ng/mL
Activity (Pseudomonas aeruginosa [43]): 103 µg/mL
Activity (Pseudomonas aeruginosa [44]): 99%
Activity (Pseudomonas aeruginosa [45]): 316 µg/mL
inhibition at 2 µg/mL (Pseudomonas aeruginosa [46]): 43%
half-life [47]: 68 h
Activity (Pseudomonas aeruginosa [48]): 24%

— ChEMBL document CHEMBL1153831, “Azithromycin blocks quorum sensing and alginate polymer formation and increases the sensitivity to serum and stationary-growth-phase killing of Pseudomonas aeruginosa and attenuates chronic P. aeruginosa lung infection in Cftr(-/-) mice” (Antimicrob Agents Chemother, 2007)
